Assay [1] deals with T1, Carnitine O-palmitoyltransferase 1, liver isoform (Homo sapiens, UniProt P50416).
T1 sequence (P50416 whole entry): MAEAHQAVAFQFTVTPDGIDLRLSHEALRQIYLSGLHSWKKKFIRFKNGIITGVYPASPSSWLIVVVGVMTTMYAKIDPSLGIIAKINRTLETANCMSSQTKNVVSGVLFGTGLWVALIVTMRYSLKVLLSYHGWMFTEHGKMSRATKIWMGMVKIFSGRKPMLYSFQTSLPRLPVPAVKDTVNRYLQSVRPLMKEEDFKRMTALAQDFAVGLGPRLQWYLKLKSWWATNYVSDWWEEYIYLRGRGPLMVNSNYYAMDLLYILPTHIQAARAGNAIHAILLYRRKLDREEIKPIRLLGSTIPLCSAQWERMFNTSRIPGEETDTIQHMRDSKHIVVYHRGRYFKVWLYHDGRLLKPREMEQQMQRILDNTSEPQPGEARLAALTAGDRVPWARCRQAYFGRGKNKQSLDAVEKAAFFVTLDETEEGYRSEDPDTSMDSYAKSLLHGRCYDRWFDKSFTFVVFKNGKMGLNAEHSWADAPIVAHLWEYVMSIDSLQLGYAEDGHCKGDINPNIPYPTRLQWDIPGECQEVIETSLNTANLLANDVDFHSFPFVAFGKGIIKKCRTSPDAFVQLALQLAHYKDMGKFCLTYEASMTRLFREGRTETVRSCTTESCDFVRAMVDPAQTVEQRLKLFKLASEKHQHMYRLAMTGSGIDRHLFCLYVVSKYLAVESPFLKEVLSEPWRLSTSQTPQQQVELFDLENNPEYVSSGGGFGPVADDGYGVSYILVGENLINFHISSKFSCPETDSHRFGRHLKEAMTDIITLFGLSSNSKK
Description: (§1) SUPPLEMENTARY: Inhibition of Carnitine palmitoyltransferase 1, liver isoform.

For assay [2], the target named is T2, Carnitine O-palmitoyltransferase 1, liver isoform (Rattus norvegicus, UniProt P32198).
T2 sequence (P32198 whole entry): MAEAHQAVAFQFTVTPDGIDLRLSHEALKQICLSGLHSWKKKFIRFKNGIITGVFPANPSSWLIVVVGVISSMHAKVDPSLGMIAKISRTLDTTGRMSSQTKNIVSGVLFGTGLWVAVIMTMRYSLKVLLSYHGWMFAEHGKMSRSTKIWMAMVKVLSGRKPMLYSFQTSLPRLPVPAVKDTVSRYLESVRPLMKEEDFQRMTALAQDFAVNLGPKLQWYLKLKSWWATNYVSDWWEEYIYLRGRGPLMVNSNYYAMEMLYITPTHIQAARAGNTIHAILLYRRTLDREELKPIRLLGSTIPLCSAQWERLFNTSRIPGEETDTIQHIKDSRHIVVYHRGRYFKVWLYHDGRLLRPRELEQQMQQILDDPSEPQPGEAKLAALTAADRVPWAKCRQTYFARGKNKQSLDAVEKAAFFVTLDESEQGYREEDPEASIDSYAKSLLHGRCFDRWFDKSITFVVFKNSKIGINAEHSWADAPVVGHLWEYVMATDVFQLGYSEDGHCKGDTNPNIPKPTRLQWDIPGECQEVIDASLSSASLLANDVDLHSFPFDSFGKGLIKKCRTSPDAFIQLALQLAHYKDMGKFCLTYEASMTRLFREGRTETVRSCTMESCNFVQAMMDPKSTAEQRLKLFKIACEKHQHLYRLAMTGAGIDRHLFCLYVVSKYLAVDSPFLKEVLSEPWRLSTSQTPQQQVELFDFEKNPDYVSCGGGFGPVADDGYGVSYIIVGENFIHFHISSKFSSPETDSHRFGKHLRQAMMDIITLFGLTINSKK
The assay is described as §1.

Assay [3] deals with T3, Carnitine O-palmitoyltransferase 2, mitochondrial (Homo sapiens, UniProt P23786).
T3 sequence (P23786 whole entry): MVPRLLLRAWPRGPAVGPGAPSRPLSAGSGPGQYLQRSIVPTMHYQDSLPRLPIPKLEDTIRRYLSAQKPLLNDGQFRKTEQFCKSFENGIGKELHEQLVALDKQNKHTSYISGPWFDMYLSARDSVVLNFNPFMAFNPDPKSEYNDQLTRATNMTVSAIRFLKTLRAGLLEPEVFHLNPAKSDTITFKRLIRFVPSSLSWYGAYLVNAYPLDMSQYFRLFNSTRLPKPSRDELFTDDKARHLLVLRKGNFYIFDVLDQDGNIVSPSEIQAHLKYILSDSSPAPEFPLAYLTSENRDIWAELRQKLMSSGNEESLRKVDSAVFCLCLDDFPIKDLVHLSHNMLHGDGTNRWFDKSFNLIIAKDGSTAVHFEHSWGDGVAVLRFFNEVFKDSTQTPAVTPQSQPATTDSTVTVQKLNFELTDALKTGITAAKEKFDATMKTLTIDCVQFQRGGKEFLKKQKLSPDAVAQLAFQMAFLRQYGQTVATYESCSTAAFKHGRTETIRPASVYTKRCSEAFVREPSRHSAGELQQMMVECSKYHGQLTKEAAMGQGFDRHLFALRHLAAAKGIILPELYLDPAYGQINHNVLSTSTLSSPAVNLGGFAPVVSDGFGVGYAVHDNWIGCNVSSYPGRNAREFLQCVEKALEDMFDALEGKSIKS
Description: (§2) SUPPLEMENTARY: Inhibition of Carnitine palmitoyltransferase 2.

The target of assay [4] is T4, Carnitine O-palmitoyltransferase 2, mitochondrial (Rattus norvegicus, UniProt P18886).
T4 sequence (P18886 whole entry): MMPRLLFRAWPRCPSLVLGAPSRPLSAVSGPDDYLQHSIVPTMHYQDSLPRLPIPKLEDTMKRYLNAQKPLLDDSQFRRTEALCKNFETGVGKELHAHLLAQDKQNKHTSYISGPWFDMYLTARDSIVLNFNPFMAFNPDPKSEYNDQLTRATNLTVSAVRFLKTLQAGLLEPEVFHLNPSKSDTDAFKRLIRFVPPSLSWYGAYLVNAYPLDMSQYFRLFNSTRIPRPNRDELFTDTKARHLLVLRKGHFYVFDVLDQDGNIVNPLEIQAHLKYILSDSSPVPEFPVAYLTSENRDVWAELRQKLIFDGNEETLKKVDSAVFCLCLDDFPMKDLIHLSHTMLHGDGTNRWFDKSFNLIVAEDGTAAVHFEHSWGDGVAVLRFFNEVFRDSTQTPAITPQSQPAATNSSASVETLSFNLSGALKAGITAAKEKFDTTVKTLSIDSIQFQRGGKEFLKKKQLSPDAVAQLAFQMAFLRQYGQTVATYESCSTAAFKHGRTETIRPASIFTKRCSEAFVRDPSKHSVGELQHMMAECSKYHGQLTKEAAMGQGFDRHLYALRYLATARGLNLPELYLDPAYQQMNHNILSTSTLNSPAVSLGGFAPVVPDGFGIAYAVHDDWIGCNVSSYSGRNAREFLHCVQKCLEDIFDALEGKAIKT
The description is as §2.

Assay [5] deals with T5, Carnitine O-palmitoyltransferase 1, muscle isoform (Homo sapiens, UniProt Q92523).
T5 sequence (Q92523 whole entry): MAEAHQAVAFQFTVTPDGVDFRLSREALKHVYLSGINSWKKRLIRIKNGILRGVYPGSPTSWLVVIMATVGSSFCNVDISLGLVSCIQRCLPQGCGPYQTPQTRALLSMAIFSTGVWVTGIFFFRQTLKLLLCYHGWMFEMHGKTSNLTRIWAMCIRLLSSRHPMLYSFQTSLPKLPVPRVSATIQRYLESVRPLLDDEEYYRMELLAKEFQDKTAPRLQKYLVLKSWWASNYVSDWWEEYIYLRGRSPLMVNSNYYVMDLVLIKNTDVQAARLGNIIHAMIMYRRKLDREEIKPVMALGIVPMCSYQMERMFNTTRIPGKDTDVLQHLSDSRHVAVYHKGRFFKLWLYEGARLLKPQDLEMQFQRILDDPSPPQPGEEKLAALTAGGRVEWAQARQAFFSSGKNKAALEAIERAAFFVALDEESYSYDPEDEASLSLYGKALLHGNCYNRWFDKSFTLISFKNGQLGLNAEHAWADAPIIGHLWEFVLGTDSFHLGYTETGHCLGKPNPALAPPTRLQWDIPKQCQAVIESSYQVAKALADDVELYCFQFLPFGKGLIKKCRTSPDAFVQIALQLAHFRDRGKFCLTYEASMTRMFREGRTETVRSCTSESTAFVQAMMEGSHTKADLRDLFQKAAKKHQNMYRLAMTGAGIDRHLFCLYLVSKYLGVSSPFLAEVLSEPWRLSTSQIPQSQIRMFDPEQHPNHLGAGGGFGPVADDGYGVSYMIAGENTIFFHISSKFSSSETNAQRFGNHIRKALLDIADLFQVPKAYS
Briefly: SUPPLEMENTARY: Inhibition of Carnitine palmitoyltransferase 1, muscle isoform. The arrangement: species or system Muscle tissue.

We go through 17 molecules from ChEMBL document CHEMBL3431459, “Roche carnitine palmitoyltransferase modulator screening data (supplementary data associated with the publication CHEMBL2216752)”.

Take `O=C(COc1ccccc1)N1CCCC[C@@H]1c1noc(-c2cc(F)c(F)cc2F)n1`: the IC50 in assay [1] is 153 nM; in assay [2] it was 173 nM; in assay [3], above 100000 nM; in assay [4], above 100000 nM; in assay [5], above 100000 nM.
`O=C(COc1ccccc1)N1CCNCC1c1nc(-c2ccc(N3CCOCC3)cc2)no1` (centres undefined): the IC50 in assay [1] is 88.7 nM; in assay [2], 489 nM; in assay [3], above 100000 nM; in assay [4] it was above 100000 nM; in assay [5], above 100000 nM.
On to `O=C(NCc1ccc(-c2nnn[nH]2)cc1)c1nn(Cc2ccc(OC(F)F)cc2)c2ccc(F)cc12`, for which the IC50 is 221 nM in assay [1]; 394 nM in assay [2]; above 100000 nM in assay [3]; above 100000 nM in assay [4]; 8510 nM in assay [5].
For `O=C(COc1ccccc1)N1CCCC[C@@H]1c1nc(-c2ccc(O)cc2)no1`, the IC50 in assay [1] was 73.2 nM; in assay [2] it was 124 nM; in assay [3], 75500 nM; in assay [5] it was 39200 nM.
For `O=C1CN(NC(=O)c2cccc(-c3n[nH]c([C@H]4CCCCN4C(=O)COc4ccccc4)n3)c2)C(=O)N1`, the IC50 was 273 nM in assay [1], 574 nM in assay [2], 19400 nM in assay [3] and above 100000 nM in assay [5].
Taken in the same sequence, the figures for `Cc1cc(C)cc(S(=O)(=O)N2CCOc3ccc(C(=O)Nc4ccc(C(=O)O)c(F)c4)cc32)c1` were 252 nM, 70.4 nM, 2040 nM and 2710 nM.
In the case of `O=C(COc1ccccc1)N1CCCC[C@@H]1c1nnn(-c2ccccc2)n1`, the IC50 was 156 nM in assay [1]; 76.9 nM in assay [2]; above 100000 nM in assay [3]; above 100000 nM in assay [4]; above 100000 nM in assay [5].
Turning to `O=C(COc1ccccc1)N1CCCC[C@@H]1c1nnn(-c2ccc(F)cc2)n1`, the IC50 in assay [1] was 197 nM; in assay [2], 256 nM; in assay [3], above 100000 nM; in assay [4], above 100000 nM; in assay [5], above 100000 nM.
`COc1ccc(-n2nnc([C@H]3CCCCN3C(=O)COc3ccccc3)n2)cc1`: the IC50 in assay [1] was 159 nM; in assay [2], 103 nM; in assay [3], 24200 nM; in assay [4] it was above 100000 nM; in assay [5], above 100000 nM.
With `COc1ccc(C)cc1S(=O)(=O)N1CCOc2ccc(C(=O)Nc3ccc(C(=O)O)c(F)c3)cc21`, the IC50 is 224 nM in assay [1]; 102 nM in assay [2]; 2580 nM in assay [3]; 15400 nM in assay [4]; 2150 nM in assay [5].
On the same counts, the results for `COc1ccc(Cl)cc1S(=O)(=O)N1CCCc2ccc(NC(=O)c3ccc(CC(=O)O)cc3)cc21` are 388 nM, 658 nM, above 100000 nM, above 100000 nM and 1820 nM.
For the molecule `Nc1ccc(-c2n[nH]c([C@H]3CCCCN3C(=O)COc3ccccc3)n2)cn1`, the IC50 in assay [1] was 325 nM; in assay [2], 759 nM; in assay [3] it was 80000 nM; in assay [4], 90700 nM.
As for `CS(=O)(=O)c1ccc(-n2nnc([C@H]3CCCCN3C(=O)COc3ccccc3)n2)cc1`, the IC50 in assay [1] is 123 nM; in assay [2], 607 nM; in assay [3], 17400 nM; in assay [4] it was above 100000 nM; in assay [5], above 100000 nM.
For the molecule `O=C(COc1ccccc1)N1CCCC[C@@H]1C#Cc1ccc2[nH]cnc2c1`, the 50% inhibitory concentration (IC50) in assay [1] was 130 nM; in assay [2] it was 72.2 nM; in assay [3], above 100000 nM; in assay [4] it was above 100000 nM; in assay [5], 7310 nM.
Regarding `O=C([C@H]1CCCCN1C(=O)COc1ccccc1)N1CCc2c(Cl)cccc2C1`, the IC50 in assay [1] was 224 nM; in assay [2], 367 nM; in assay [3], 634 nM; in assay [4], 1610 nM; in assay [5] it was above 100000 nM.
With `O=C([C@H]1CCCCN1C(=O)COc1ccccc1)N1CCc2ccc([N+](=O)[O-])cc2C1`, the IC50 in assay [1] is 648 nM; in assay [3], 1620 nM; in assay [4] it was 2850 nM; in assay [5], above 100000 nM.
On to `COc1ccc(Cl)cc1S(=O)(=O)N1COc2c(OC)cc(C(=O)Nc3ccc(C(=O)O)cc3)cc21`, for which the IC50 in assay [1] amounted to 530 nM; in assay [3], 782 nM; in assay [4], 2120 nM; in assay [5] it was 29000 nM.

Broadly, the IC50 is the concentration that inhibits the measured activity by half. A lower IC50 goes with inhibition by little substance.
